Patent US20240033272A1, “USE OF C[…] THE TREATMENT OF SEIZURES ASSOCIATED WITH HERPES SIMPLEX VIRUS” (GW Research Limited, priority 2020, published 2024)

Test system: patients diagnosed with herpes simplex virus (seizures associated with herpes simplex virus)
Test: Open label, expanded-access program: seizure frequency recorded by caregivers in a diary, change relative to baseline
Format: in vivo, human
Parameters: Reduction in myoclonic seizures over the treatment period / Reduction in absence seizures over the treatment period / Reduction in focal seizures with impairment over the treatment period / Reduction in tonic-clonic seizures over the treatment period / Reduction in atonic seizures over the treatment period / Reduction in tonic seizures over the treatment period: concentration or dose not given beside the values; Seizure frequency, tonic-clonic / Seizure frequency, myoclonic / Seizure frequency, absence / Seizure frequency, focal with impairment / Seizure frequency, tonic / Seizure frequency, focal without impairment / Seizure frequency, atonic: unit not given here
Conditions: for Seizure frequency, atonic: baseline 20.0
Experimental: Subjects were required to be on one or more AEDs at stable doses for a minimum of two weeks prior to baseline and to have stable vagus nerve stimulation (VNS) settings and ketogenic diet ratios for a minimum of four weeks prior to baseline.
Modifications were made to concomitant AEDs as per clinical indication.
Seizure frequency, intensity, and duration were recorded by caregivers in a diary during a baseline period of at least 28 days. Changes in seizure frequency relative to baseline were calculated after at least 2 weeks and at defined timepoints of treatment.
Patients may be defined as responders if they had more than 50% reduction in seizure frequency compared to baseline. The percent change in seizure frequency was calculated as follows: […]
The percent change of seizure frequency may be calculated for any time interval where seizure number has been recorded. For the purpose of this example the percent change of seizure frequency for the end of the treatment period was calculated as follows: […]

[1] = Patient 1, treated for 48 weeks, vs baseline
[2] = Patient 2, 4 weeks, CBD 25.0 mg/kg/day, baseline 8.0
[3] = Patient 2, 8 weeks, CBD 25.0 mg/kg/day, baseline 8.0
[4] = Patient 2, 24 weeks, CBD 25.0 mg/kg/day, baseline 8.0
[5] = Patient 3, treated for 108 weeks, vs baseline

C=C(C)[C@@H]1CCC(C)=C[C@H]1c1c(O)cc(CCCCC)cc1O [CBD, cannabidiol]
Time of treatment after which patient became completely seizure free, focal seizures with impairment (Patient 1): 24 weeks
Time of treatment after which patient became completely seizure free, myoclonic seizures (Patient 1): 8 weeks
Seizure frequency, tonic-clonic (Patient 1, 4 weeks, CBD 5.0 mg/kg/day, baseline 0.0): 14.0
Seizure frequency, myoclonic (Patient 1, 4 weeks, CBD 5.0 mg/kg/day, baseline 75.0): 4.0
Seizure frequency, focal with impairment (Patient 1, 4 weeks, CBD 5.0 mg/kg/day, baseline 100.0): 14.0
Seizure frequency, absence (Patient 1, 4 weeks, CBD 5.0 mg/kg/day, baseline 2500.0): 800.0
Seizure frequency, tonic-clonic (Patient 1, 8 weeks, CBD 10.0 mg/kg/day, baseline 0.0): 20.0
Seizure frequency, myoclonic (Patient 1, 8 weeks, CBD 10.0 mg/kg/day, baseline 75.0): 0.0
Seizure frequency, focal with impairment (Patient 1, 8 weeks, CBD 10.0 mg/kg/day, baseline 100.0): 12.0
Seizure frequency, absence (Patient 1, 8 weeks, CBD 10.0 mg/kg/day, baseline 2500.0): 1390.0
Seizure frequency, tonic-clonic (Patient 1, 16 weeks, CBD 15.0 mg/kg/day, baseline 0.0): 20.0
Seizure frequency, myoclonic (Patient 1, 16 weeks, CBD 15.0 mg/kg/day, baseline 75.0): 0.0
Seizure frequency, focal with impairment (Patient 1, 16 weeks, CBD 15.0 mg/kg/day, baseline 100.0): 7.0
Seizure frequency, absence (Patient 1, 16 weeks, CBD 15.0 mg/kg/day, baseline 2500.0): 250.0
Seizure frequency, tonic-clonic (Patient 1, 24 weeks, CBD 20.0 mg/kg/day, baseline 0.0): 79.6
Seizure frequency, myoclonic (Patient 1, 24 weeks, CBD 20.0 mg/kg/day, baseline 75.0): 0.0
Seizure frequency, focal with impairment (Patient 1, 24 weeks, CBD 20.0 mg/kg/day, baseline 100.0): 0.0
Seizure frequency, absence (Patient 1, 24 weeks, CBD 20.0 mg/kg/day, baseline 2500.0): 398.0
Seizure frequency, tonic-clonic (Patient 1, 36 weeks, CBD 25.0 mg/kg/day, baseline 0.0): 31.3
Seizure frequency, myoclonic (Patient 1, 36 weeks, CBD 25.0 mg/kg/day, baseline 75.0): 0.0
Seizure frequency, focal with impairment (Patient 1, 36 weeks, CBD 25.0 mg/kg/day, baseline 100.0): 0.0
Seizure frequency, absence (Patient 1, 36 weeks, CBD 25.0 mg/kg/day, baseline 2500.0): 466.6
Seizure frequency, tonic-clonic (Patient 1, 48 weeks, CBD 25.0 mg/kg/day, baseline 0.0): 16.0
Seizure frequency, myoclonic (Patient 1, 48 weeks, CBD 25.0 mg/kg/day, baseline 75.0): 0.0
Seizure frequency, focal with impairment (Patient 1, 48 weeks, CBD 25.0 mg/kg/day, baseline 100.0): 0.0
Seizure frequency, absence (Patient 1, 48 weeks, CBD 25.0 mg/kg/day, baseline 2500.0): 231.7
Reduction in absence seizures over the treatment period [1]: 90.7%
Reduction in focal seizures with impairment over the treatment period [1]: 100%
Reduction in myoclonic seizures over the treatment period [1]: 100%
Seizure frequency, tonic-clonic (Patient 2, 4 weeks, CBD 25.0 mg/kg/day, baseline 1.0): 0.0
Seizure frequency, absence [2]: 6.0
Seizure frequency, focal without impairment [2]: 8.0
Seizure frequency, tonic (Patient 2, 4 weeks, CBD 25.0 mg/kg/day, baseline 32.0): 44.0
Seizure frequency, tonic-clonic (Patient 2, 8 weeks, CBD 25.0 mg/kg/day, baseline 1.0): 0.0
Seizure frequency, absence [3]: 0.0
Seizure frequency, focal without impairment [3]: 0.0
Seizure frequency, tonic (Patient 2, 8 weeks, CBD 25.0 mg/kg/day, baseline 32.0): 24.0
Seizure frequency, tonic-clonic (Patient 2, 24 weeks, CBD 25.0 mg/kg/day, baseline 1.0): 0.5
Seizure frequency, absence [4]: 12.0
Seizure frequency, focal without impairment [4]: 17.0
Seizure frequency, tonic (Patient 2, 24 weeks, CBD 25.0 mg/kg/day, baseline 32.0): 56.0
Reduction in tonic-clonic seizures over the treatment period (Patient 2, treated for 24 weeks, vs baseline): 50%
Seizure frequency, tonic-clonic (Patient 3, 2 weeks, CBD 5.0 mg/kg/day, baseline 6.0): 8.0
Seizure frequency, myoclonic (Patient 3, 2 weeks, CBD 5.0 mg/kg/day, baseline 32.0): 6.0
Seizure frequency, tonic-clonic (Patient 3, 4 weeks, CBD 10.0 mg/kg/day, baseline 6.0): 5.3
Seizure frequency, myoclonic (Patient 3, 4 weeks, CBD 10.0 mg/kg/day, baseline 32.0): 9.3
Seizure frequency, tonic-clonic (Patient 3, 8 weeks, CBD 20.0 mg/kg/day, baseline 6.0): 6.0
Seizure frequency, myoclonic (Patient 3, 8 weeks, CBD 20.0 mg/kg/day, baseline 32.0): 16.0
Seizure frequency, tonic-clonic (Patient 3, 16 weeks, CBD 25.0 mg/kg/day, baseline 6.0): 11.0
Seizure frequency, myoclonic (Patient 3, 16 weeks, CBD 25.0 mg/kg/day, baseline 32.0): 4.0
Seizure frequency, tonic-clonic (Patient 3, 36 weeks, CBD 30.0 mg/kg/day, baseline 6.0): 2.6
Seizure frequency, myoclonic (Patient 3, 36 weeks, CBD 30.0 mg/kg/day, baseline 32.0): 9.3
Seizure frequency, tonic-clonic (Patient 3, 48 weeks, CBD 35.0 mg/kg/day, baseline 6.0): 7.7
Seizure frequency, myoclonic (Patient 3, 48 weeks, CBD 35.0 mg/kg/day, baseline 32.0): 18.4
Seizure frequency, tonic-clonic (Patient 3, 60 weeks, CBD 35.0 mg/kg/day, baseline 6.0): 6.6
Seizure frequency, myoclonic (Patient 3, 60 weeks, CBD 35.0 mg/kg/day, baseline 32.0): 19.4
Seizure frequency, tonic-clonic (Patient 3, 72 weeks, CBD 30.0 mg/kg/day, baseline 6.0): 3.4
Seizure frequency, myoclonic (Patient 3, 72 weeks, CBD 30.0 mg/kg/day, baseline 32.0): 9.7
Seizure frequency, tonic-clonic (Patient 3, 96 weeks, CBD 30.0 mg/kg/day, baseline 6.0): 1.0
Seizure frequency, myoclonic (Patient 3, 96 weeks, CBD 30.0 mg/kg/day, baseline 32.0): 13.8
Seizure frequency, tonic-clonic (Patient 3, 108 weeks, CBD 30.0 mg/kg/day, baseline 6.0): 0.9
Seizure frequency, myoclonic (Patient 3, 108 weeks, CBD 30.0 mg/kg/day, baseline 32.0): 13.8
Reduction in myoclonic seizures over the treatment period [5]: 56.9%
Reduction in tonic-clonic seizures over the treatment period [5]: 85%
Seizure frequency, tonic-clonic (Patient 4, 2 weeks, CBD 5.0 mg/kg/day, baseline 10.0): 2.0
Seizure frequency, focal with impairment (Patient 4, 2 weeks, CBD 5.0 mg/kg/day, baseline 14.0): 4.0
Seizure frequency, atonic (Patient 4, 2 weeks, CBD 5.0 mg/kg/day): 0.0
Seizure frequency, tonic-clonic (Patient 4, 4 weeks, CBD 10.0 mg/kg/day, baseline 10.0): 2.0
Seizure frequency, focal with impairment (Patient 4, 4 weeks, CBD 10.0 mg/kg/day, baseline 14.0): 2.0
Seizure frequency, atonic (Patient 4, 4 weeks, CBD 10.0 mg/kg/day): 1.0
Seizure frequency, tonic-clonic (Patient 4, 8 weeks, CBD 20.0 mg/kg/day, baseline 10.0): 0.0
Seizure frequency, focal with impairment (Patient 4, 8 weeks, CBD 20.0 mg/kg/day, baseline 14.0): 0.0
Seizure frequency, atonic (Patient 4, 8 weeks, CBD 20.0 mg/kg/day): 0.0
Seizure frequency, tonic-clonic (Patient 4, 12 weeks, CBD 20.0 mg/kg/day, baseline 10.0): 0.0
Seizure frequency, focal with impairment (Patient 4, 12 weeks, CBD 20.0 mg/kg/day, baseline 14.0): 0.0
Seizure frequency, atonic (Patient 4, 12 weeks, CBD 20.0 mg/kg/day): 5.0
